T/C data for 19 compounds are collected here from PubChem BioAssay AID248 (DTP/NCI, 2004).

The experiment concerns L1210 leukemia ip in BDF1 mice, survival T/C. The experiment is described as follows: NCI In Vivo Anticancer Drug Screen. Data for tumor model L1210 Leukemia (intraperitoneal) in B6D2F1 (BDF1) mice. To be noted: endpoint: mean survival time, higher = longer survival. Put shortly:
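Read-out is survival time, reported as the treated-group measurement over the vehicle-control measurement.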

Setting [1] is: dose: 12.5 mg/kg/injection, schedule: Q01DX009 (ip), vehicle: Klucel (hydroxypropylcellulose) (HPC).
The mark [2] stands for this setting: dose: 25.0 mg/kg/injection, schedule: Q01DX009 (ip), vehicle: Klucel (hydroxypropylcellulose) (HPC).
[3] abbreviates: dose: 50.0 mg/kg/injection, schedule: Q01DX009 (ip), vehicle: Klucel (hydroxypropylcellulose) (HPC).
Where [4] appears, read: dose: 100.0 mg/kg/injection, schedule: Q01DX009 (ip), vehicle: Klucel (hydroxypropylcellulose) (HPC).
Setting [5] is: dose: 100.0 mg/kg/injection, schedule: Q01DX001 (ip), vehicle: carboxymethylcellulose (CMC).
[6] abbreviates: dose: 400.0 mg/kg/injection, schedule: Q01DX001 (ip), vehicle: carboxymethylcellulose (CMC).
Where [7] appears, read: dose: 100.0 mg/kg/injection, schedule: Q01DX001 (ip), vehicle: saline.
Setting [8] is: dose: 200.0 mg/kg/injection, schedule: Q01DX001 (ip), vehicle: saline.
Setting [9] is: dose: 400.0 mg/kg/injection, schedule: Q01DX001 (ip), vehicle: saline.
[10] abbreviates: dose: 100.0 mg/kg/injection, schedule: Q01DX009 (ip), vehicle: saline.
Setting [11] is: dose: 100.0 mg/kg/injection, schedule: Q04DX003 (ip), vehicle: other.
The mark [12] stands for this setting: dose: 200.0 mg/kg/injection, schedule: Q04DX003 (ip), vehicle: other.
The mark [13] stands for this setting: dose: 400.0 mg/kg/injection, schedule: Q04DX003 (ip), vehicle: other.
Where [14] appears, read: dose: 100.0 mg/kg/injection, schedule: Q04DX003 (ip), vehicle: Klucel (hydroxypropylcellulose) (HPC).
Setting [15] is: dose: 200.0 mg/kg/injection, schedule: Q01DX009 (ip), vehicle: Klucel (hydroxypropylcellulose) (HPC).
The mark [16] stands for this setting: dose: 200.0 mg/kg/injection, schedule: Q04DX003 (ip), vehicle: Klucel (hydroxypropylcellulose) (HPC).
[17] abbreviates: dose: 400.0 mg/kg/injection, schedule: Q01DX009 (ip), vehicle: Klucel (hydroxypropylcellulose) (HPC).
The mark [18] stands for this setting: dose: 400.0 mg/kg/injection, schedule: Q04DX003 (ip), vehicle: Klucel (hydroxypropylcellulose) (HPC).

Several values for one entry are separate records, joined by “and”; a condition that tells them apart may be missing. Equal entries are not always repeated. Toxic doses and inconclusive results are not listed.

Turning to `CCC(C)c1cc(CN(C)C)cc(C(C)CC)c1O` (stereo not given), the T/C was 105 % of control under setting [1], 105 % of control under setting [2], 96 % of control under setting [3] and 102 % of control under setting [4].
Consider `Nc1ccc(Cc2ccc(N)cc2[N+](=O)[O-])c([N+](=O)[O-])c1`, for which the T/C under setting [5] was 98 % of control; the T/C (dose: 200.0 mg/kg/injection, schedule: Q01DX001 (ip), vehicle: carboxymethylcellulose (CMC)) is 105 % of control; the T/C under setting [6] is 100 % of control.
`O=S(=O)(O)C(Cl)c1ccccc1` (stereo not given): the T/C runs as follows: (dose: 100.0 mg/kg/injection, schedule: Q04DX002 (ip), vehicle: saline) 105 % of control; (dose: 200.0 mg/kg/injection, schedule: Q04DX002 (ip), vehicle: saline) 102 % of control; (dose: 400.0 mg/kg/injection, schedule: Q04DX002 (ip), vehicle: saline) 98 % of control.
With `O=C(NCCCBr)Nc1cccc2c1CCCC2`, the T/C reads like this: (dose: 50.0 mg/kg/injection, schedule: Q04DX003 (ip), vehicle: saline with Tween-80) 95 % of control; (dose: 100.0 mg/kg/injection, schedule: Q01DX009 (ip), vehicle: saline with Tween-80) 100 % of control; (dose: 100.0 mg/kg/injection, schedule: Q04DX003 (ip), vehicle: saline with Tween-80) 93 % of control; (dose: 200.0 mg/kg/injection, schedule: Q01DX009 (ip), vehicle: saline with Tween-80) 97 % of control; (dose: 200.0 mg/kg/injection, schedule: Q04DX003 (ip), vehicle: saline with Tween-80) 101 % of control; (dose: 400.0 mg/kg/injection, schedule: Q01DX009 (ip), vehicle: saline with Tween-80) 96 % of control. The T/C (dose: 400.0 mg/kg/injection, schedule: Q04DX003 (ip), vehicle: saline with Tween-80) was 95 % of control.
Turning to `O=C1NC(=O)C(c2ccccc2)(c2ccsc2)N1` (stereo not given), the T/C by setting is: under setting [7], 95 % of control; under setting [8], 90 % of control; under setting [9], 95 % of control.
With `S=P(NCCNP(=S)(N1CC1)N1CC1)(N1CC1)N1CC1`, the T/C reads like this: (dose: 1.5 mg/kg/injection, schedule: Q01DX015 (ip), vehicle: saline) 96 % of control; (dose: 3.0 mg/kg/injection, schedule: Q01DX015 (ip), vehicle: saline) 98 % of control; (dose: 6.0 mg/kg/injection, schedule: Q01DX015 (ip), vehicle: saline) 101 % of control; (dose: 12.0 mg/kg/injection, schedule: Q01DX009 (ip), vehicle: carboxymethylcellulose (CMC)) 104 % of control; (dose: 12.0 mg/kg/injection, schedule: Q01DX015 (ip), vehicle: saline) 102 % of control; under setting [1], 108 % of control. Also, the T/C reads like this: (dose: 12.5 mg/kg/injection, schedule: Q01DX009 (ip), vehicle: saline) 112 % of control; under setting [2], 120 % of control; (dose: 25.0 mg/kg/injection, schedule: Q01DX009 (ip), vehicle: carboxymethylcellulose (CMC)) 121 % of control; under setting [3], 97 % of control; (dose: 50.0 mg/kg/injection, schedule: Q01DX009 (ip), vehicle: carboxymethylcellulose (CMC)) 115 % of control; under setting [7], 106 % of control. Further, the T/C runs as follows: (dose: 100.0 mg/kg/injection, schedule: Q01DX009 (ip), vehicle: carboxymethylcellulose (CMC)) 109 % of control; under setting [10], 120 % of control; under setting [8], 104 % of control; under setting [9], 120 % of control.
With `N#Cc1ccc(N=C(N)N[N+](=O)[O-])cc1`, the T/C reads like this: (dose: 25.0 mg/kg/injection, schedule: Q04DX002 (ip), vehicle: Klucel (hydroxypropylcellulose) (HPC)) 96 % of control; (dose: 50.0 mg/kg/injection, schedule: Q04DX002 (ip), vehicle: Klucel (hydroxypropylcellulose) (HPC)) 104 % of control; (dose: 100.0 mg/kg/injection, schedule: Q04DX002 (ip), vehicle: Klucel (hydroxypropylcellulose) (HPC)) 104 % of control.
`O=C(O)CC(NS(=O)(=O)Cc1ccccc1)C(=O)O` (stereo not given): the T/C is, setting by setting: under setting [11], 94 % of control; under setting [12], 92 % of control; under setting [13], 92 % of control.
For the compound `NC(N)=NCCS(=O)(=O)Nc1ccc(Nc2c3ccccc3nc3cc([N+](=O)[O-])ccc23)cc1`, the T/C was 121 % of control (dose: 0.75 mg/kg/injection, schedule: Q01DX009 (ip), vehicle: water); 163 % of control (dose: 6.0 mg/kg/injection, schedule: Q01DX009 (ip), vehicle: water); 157 % of control (dose: 25.0 mg/kg/injection, schedule: Q04DX003 (ip), vehicle: water); 175 % of control (dose: 50.0 mg/kg/injection, schedule: Q04DX003 (ip), vehicle: water).
Take `Cc1ccc(NCCN2CCOCC2)c2c(=O)c3ccccc3sc12`: the T/C was 92 % of control (dose: 9.0 mg/kg/injection, schedule: Q01DX Z (ip), vehicle: methylcellulose (MC)); 104 % of control (dose: 14.0 mg/kg/injection, schedule: Q01DX Z (ip), vehicle: methylcellulose (MC)); 97 % of control (dose: 21.0 mg/kg/injection, schedule: Q01DX Z (ip), vehicle: methylcellulose (MC)); 109 % of control (dose: 32.0 mg/kg/injection, schedule: Q01DX Z (ip), vehicle: methylcellulose (MC)).
On to `Cc1ccc2ccc(/C=N/Nc3ccc4cccc(O)c4n3)c(O)c2n1`, for which the T/C under setting [5] was 88 % of control and the T/C under setting [6] was 88 % of control.
As for `ClC(=C(c1ccccc1)c1ccccc1)c1ccccc1`, the T/C by setting is: under setting [4], 92 % of control; under setting [14], 94 % of control; under setting [15], 96 % of control; under setting [16], 92 % of control; under setting [17], 95 % of control; under setting [18], 95 % of control.
For the compound `CCOc1ccccc1NC(c1ccc(OC)cc1)P(=O)(c1ccccc1)c1ccccc1` (stereo not given), the T/C is 101 % of control under setting [14], 101 % of control under setting [16] and 92 % of control under setting [18].
On to `CCCCCCCCCCCCCCCC(C)(C)O`, for which the T/C runs as follows: under setting [4], 102 % of control; under setting [14], 96 % of control; under setting [15], 100 % of control; under setting [16], 96 % of control; under setting [17], 102 % of control; under setting [18], 101 % of control.
Turning to `CC1C2CCC(C2)C1N` (stereo not given), the T/C was 96 % of control (dose: 25.0 mg/kg/injection, schedule: Q01DX009 (ip), vehicle: saline); 94 % of control (dose: 25.0 mg/kg/injection, schedule: Q04DX003 (ip), vehicle: saline); 104 % of control (dose: 50.0 mg/kg/injection, schedule: Q01DX009 (ip), vehicle: saline); 105 % of control (dose: 50.0 mg/kg/injection, schedule: Q04DX003 (ip), vehicle: saline); 98 % of control under setting [10]; 112 % of control and 92 % of control and 93 % of control (dose: 100.0 mg/kg/injection, schedule: Q04DX003 (ip), vehicle: saline). The T/C (dose: 200.0 mg/kg/injection, schedule: Q04DX003 (ip), vehicle: saline) is 93 % of control.
As to `CC(=O)C1(c2ccccc2)C(C)(C)C(C)(C)C(=O)C(C)(C)C1(C)C`, the T/C reads like this: (dose: 100.0 mg/kg/injection, schedule: Q04DX002 (ip), vehicle: gum acacia) 99 % of control; (dose: 200.0 mg/kg/injection, schedule: Q04DX002 (ip), vehicle: gum acacia) 96 % of control; (dose: 400.0 mg/kg/injection, schedule: Q04DX002 (ip), vehicle: gum acacia) 92 % of control.
With `CN1C(=O)c2ccccc2C1(N)c1ccccc1` (stereo not given), the T/C under setting [4] was 90 % of control, the T/C under setting [15] was 105 % of control and the T/C under setting [17] was 100 % of control.
As to `CCOP(=O)(OCC)C(C)C#N` (stereo not given), the T/C (dose: 15.0 mg/kg/injection, schedule: Q01DX001 (ip), vehicle: saline) is 95 % of control and the T/C (dose: 30.0 mg/kg/injection, schedule: Q01DX001 (ip), vehicle: saline) was 100 % of control.
`NC(=O)C1=CN(Cc2ccc(F)cc2)c2ccccc2C1`: the T/C runs as follows: under setting [11], 107 % of control; under setting [12], 94 % of control; under setting [13], 102 % of control.
